According to patent US20100324303A1, “Use of Tetramic Acid Derivatives for Controlling Animal Pests After Treatment of the Trunk, the Branches, the Influorescences or the Buds” (Bayer CropScience AG, priority 2008, published 2010):
Read-outs that look alike come from different tables or passages of the source.

What was measured:
Type in all cases: in vivo
[1] = tested on: banana flower thrips (Thrips hawaiiensis); assay: Flower bud injection on banana trees against banana flower thrips; conditions: banana cv. Cavendish, 80 ml injected into flower buds, destruction of population on influorescences and bunches, imidacloprid (100 SL) 0.1 g a.i./l, Example (II) (100 OD) 0.3 g a.i./l; for Activity in % Abbott 3 d: 3 days after treatment; for Activity in % Abbott 91 d: 91 days after treatment
Procedure: Banana trees cv. “Cavendish” are treated in three replications against banana flower thrips (Thrips hawaiiensis). Here, the active substances Example (II) (100 OD) are tested versus the commercial standard imidacloprid (100 SL) at the application rates specified. The application is carried out by injecting in each case 80 ml of injection solution into the flower buds. In each case three flower buds are treated. The evaluation is effected 3 and 91 days after the treatment by scoring the destruction of the population on the influorescences and bunches.

[2] = tested on: pineapple mealybug Dysmicoccus brevipes; assay: Pseudostem (and foliar) spray application on banana trees against pineapple mealybug; conditions: banana cv. Cavendish, 50 ml on leaves and 50 ml on peeled stem, mealybug on the stem, Banole oil 30 g/l, chlorpyrifos-methyl 0.8 g/l, (II) SC 240 0.3 g/l in tank mix with 0.025% Hoestick
Procedure: Banana trees (growth stage BBCH 1130) cv. “Cavendish” consisting of mother plant and sucker are treated in three replications following foliar treatment against Aspidiotus destructor and against the pineapple mealybug Dysmicoccus brevipes by pseudostem application. To this end, in each case 100 ml of spray solution are applied, in each case 50 ml being sprayed onto the leaves and 50 ml onto the stem. Before the stem application, the outermost stem layer is first peeled off, which is general practice. Here, the active substance (II) (SC 240) is tested in a tank mix along with 0.025% Hoestick (XL 500) versus the commercial standards chlorpyrifos-methyl (500 EC) and liquid paraffin (Banole oil) (EC 600).
The evaluation is carried out 3, 7, 14 and 22 days after the treatment by scoring the destruction of the pineapple mealybug on the stem.

[3] = tested on: California red scale Aonidiella aurantii; assay: Stem application by painting on to orange trees against California red scale; conditions: 205 days after treatment, orange trees cv. Valencia, infestation on the fruits, imidacloprid 2 g a.i./tree, Example (II) (SC 240) 4 g a.i./tree
Procedure: Young orange trees cv. “Valencia” which are approximately 5 years old are treated in three applications against the California red scale Aonidiella aurantii after stem application by painting on the active substances. Here, the active substance (II) (SC 240) is tested versus the commercial standard imidacloprid at the application rates detailed. The evaluation is carried out 205 days after the treatment by scoring the infestation on the fruits.

Structure (SMILES) | Activity in % Abbott 3 d [1] | Activity in % Abbott 91 d [1] | inhibition at 300 µg/mL ([2]; SC240, 72 h, 3 days after treatment, read-out: Activity (%) Abbott 3 d) | inhibition at 300 µg/mL ([2]; SC240, 168 h, 7 days after treatment, read-out: Activity (%) Abbott 7 d) | inhibition at 300 µg/mL ([2]; SC240, 336 h, 14 days after treatment, read-out: Activity (%) Abbott 14 d) | inhibition at 300 µg/mL ([2]; SC240, 528 h, 22 days after treatment, read-out: Activity (%) Abbott 22 d) | Efficacy (% Abbott) [3]
CCOC(=O)OC1=C(c2cc(C)ccc2C)C(=O)N[C@]12CC[C@@H](OC)CC2 [Example (II)] | 66.7 % Abbott | 100 % Abbott | 81.2% | 92.3% | 96.4% | 96.7% | 100 % Abbott
O=[N+]([O-])NC1=NCCN1Cc1ccc(Cl)nc1 [Imidacloprid, imidacloprid, reference compound] | 98.4 % Abbott | 100 % Abbott |  |  |  |  | 100 % Abbott
